Reference: patent publication US8183252B2, “Heterocyclic aspartyl protease inhibitors” (Schering Corporation, priority 2007, dated 2012)

These compounds were tested against T1, Mature human Renin (Homo sapiens, UniProt P00797) (assay: Human Mature Renin Enzyme Assay (FRET)). Conditions: 100 μM compound; percent decrease in renin induced fluorescence after 40 min at 30 degrees celsius.
T1 construct: The prodomain of the recombinant human renin-V5-6His was removed by limited proteolysis using immobilized TPCK-trypsin to give mature-human renin; V5 (C); 6His (C); made in house
T1 sequence (P00797 67-406): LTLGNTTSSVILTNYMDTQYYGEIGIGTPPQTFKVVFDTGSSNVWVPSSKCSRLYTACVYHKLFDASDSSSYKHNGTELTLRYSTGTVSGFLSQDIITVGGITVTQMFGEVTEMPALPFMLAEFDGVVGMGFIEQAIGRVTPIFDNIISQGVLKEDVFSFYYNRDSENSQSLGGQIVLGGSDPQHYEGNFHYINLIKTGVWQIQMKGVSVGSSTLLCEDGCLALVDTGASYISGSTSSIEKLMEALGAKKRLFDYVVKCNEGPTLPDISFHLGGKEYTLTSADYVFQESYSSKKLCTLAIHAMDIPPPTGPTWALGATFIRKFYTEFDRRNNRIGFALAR
Assay type: biochemical
Text: Human Renin was cloned from a human kidney cDNA library and C-terminally epitope-tagged with the V5-6His sequence into pCDNA3.1. pCNDA3.1-Renin-V5-6His was stably expressed in HEK293 cells and purified to >80% using standard Ni-Affinity chromatography. The prodomain of the recombinant human renin-V5-6His was removed by limited proteolysis using immobilized TPCK-trypsin to give mature-human renin. Renin enzymatic activity was monitored using a commercially available fluorescence resonance energy transfer (FRET) peptide substrate, RS-1 (Molecular Probes, Eugene, Oreg.) in 50 mM Tris-HCl pH 8.0, 100 mM NaCl, 0.1% Brij-35 and 5% DMSO buffer for 40 mins at 30 degrees celsius in the presence or absence of different concentrations of test compounds. Mature human Renin was present at approximately 200 nM. Inhibitory activity was defined as the percent decrease in renin induced fluorescence at the end of the 40 min incubation compared to vehicle controls and samples lacking enzyme.

Q: With `CCC[C@H]1CN(Cc2ccc(CN3C(=N)N[C@](CCC4CCCCC4)(CC4CCCCC4)C3=O)cc2)C(=O)N1` as the compound, how does the “% inhibition of renin at 100 μM” value read?
A: 76.9%

Q: With `CCC[C@H]1CN(Cc2ccc(CN3C(=N)NC(CCC4CCCCC4)(CC4CCCCC4)C3=O)cc2)C(=O)N1` (stereo partly drawn) as the compound, how does the “% inhibition of renin at 100 μM” value read?
A: 75.3%

Q: For `CN1C(=N)N[C@](CCC2CCCCC2)(C[C@H]2CCC[C@@H](Nc3cccnc3)C2)C1=O`, which “% inhibition of renin at 100 μM” value is on record?
A: 68.8%

What follows are compounds tested against T2, human liver Cathepsin D (Homo sapiens, UniProt P07339) (assay: Human Cathepsin D FRET Assay). Conditions: Ki interpolated from IC50 using Km 4 uM and substrate 2.5 uM; read-out: hCathD Ki.
T2 construct: Purified (>95%) human liver Cathepsin D; purchased Athens Research & Technology 16-12-030104; host or cells: human liver (tissue-derived)
T2 sequence (P07339 65-161 limits assumed): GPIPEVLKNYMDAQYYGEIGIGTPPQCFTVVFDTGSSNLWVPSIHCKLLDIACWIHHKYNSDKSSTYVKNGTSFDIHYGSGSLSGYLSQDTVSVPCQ
T2 sequence (P07339 169-412 limits assumed): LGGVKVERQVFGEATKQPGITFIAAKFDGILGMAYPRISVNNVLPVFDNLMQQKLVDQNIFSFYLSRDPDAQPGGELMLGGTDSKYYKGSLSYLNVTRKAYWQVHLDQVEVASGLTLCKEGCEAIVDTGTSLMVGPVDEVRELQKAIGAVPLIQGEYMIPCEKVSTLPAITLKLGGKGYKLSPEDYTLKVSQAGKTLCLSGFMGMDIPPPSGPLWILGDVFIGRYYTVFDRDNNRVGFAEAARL
Assay type: biochemical
Experimental: This assay can be run in either continuous or endpoint format. […] Substrate and enzyme are commercially available.
The assay is run in a 30 ul final volume using a 384 well Nunc black plate. 8 concentrations of compound are pre-incubated with enzyme for 30 mins at 37 C followed by addition of substrate with continued incubation at 37 C for 45 mins. The rate of increase in fluorescence is linear for over 1 h and is measured at the end of the incubation period using a Molecular Devices FLEX station plate reader.
Compound is diluted to 3× final concentration in assay buffer containing 3% DMSO. […] 10 ul of substrate is added to each well mixed and spun briefly to initiate the reaction.

Q: Which Ki does the source give for `N=C1N[C@](CCC2CCCCC2)(CC2CCCCC2)C(=O)N1Cc1ccc(Cl)cc1Cl` [drawing 4522] here?
A: 0.45 nM

Same assay, conditions: compounds listed as exhibiting hCathD Ki under 75 nM; Ki interpolated from IC50, Km 4 uM, substrate 2.5 uM

Q: For `CCCCc1cccc(C2(CCCC)NC(=N)N(CC3CCN(C(=O)COc4ccccc4)CC3)C2=O)c1` (stereo not drawn), which Ki is on record?
A: < 75 nM

Q: With `CCCCOC1CCCC(C[C@@]2(CCC3CCCCC3)NC(=N)N(C)C2=O)C1` (stereo partly drawn) as the compound, how does the Ki read?
A: < 75 nM

Q: With `N=C1N[C@](CCC2CCCCC2)(CC2CCCCC2)C(=O)N1CCC(c1ccccc1)c1ccccc1` as the compound, how does the Ki read?
A: < 75 nM

Q: For `CCCCNC(=O)NCc1ccc(CN2C(=N)NC(CCC3CCCCC3)(CC3CCCCC3)CC2=O)cc1` (stereo not drawn), which Ki is on record?
A: < 75 nM

Q: How did the Ki turn out when `N=C1NC(CCC2CCCCC2)(c2cccc(Br)c2)C(=O)N1CC1CCN(C(=O)COc2ccccc2)CC1` (stereo not drawn) was run?
A: < 75 nM

Q: With `CCC[C@H]1CN(Cc2ccc(CC3C(=N)N[C@](CCC4CCCCC4)(CC4CCCCC4)C3=O)cc2)C(=O)N1` (stereo partly drawn) as the compound, how does the Ki read?
A: < 75 nM

Q: Which Ki does the source give for `N=C1N[C@](CCC2CCCCC2)(CC2CCCCC2)C(=O)N1Cc1ccc([N+](=O)[O-])cc1` here?
A: < 75 nM

Q: `N=C1N[C@](CCC2CCCCC2)(CC2CCCCC2)C(=O)N1Cc1cccc([N+](=O)[O-])c1` was tested. Which Ki did it give?
A: < 75 nM

Q: For `CCCCC1(c2cccc(Br)c2)NC(=N)N(CC2CCN(C(=O)COc3ccccc3)CC2)C1=O` (stereo not drawn), which Ki is on record?
A: < 75 nM

Q: How did the Ki turn out when `N=C1N[C@](CCC2CCCCC2)(CC2CCCCC2)C(=O)N1Cc1ccc(F)cc1` was run?
A: < 75 nM

Q: `CCCCNC(=O)NCc1ccc(CN2C(=N)NC(CCC3CCCCC3)(CC3CCCCC3)C2=O)cc1` (stereo not drawn) was tested. Which Ki did it give?
A: < 75 nM

Q: How did the Ki turn out when `C[C@@H](C1CCCCC1)N1C(=N)N[C@](CCC2CCCCC2)(CC2CCCCC2)C1=O` was run?
A: < 75 nM

Q: `N=C1NC(CCC2CCCCC2)(CC2CCCCC2)C(=O)N1CC1CCN(C(=O)COc2ccccc2)CC1` (stereo not drawn) was tested. Which Ki did it give?
A: < 75 nM

Q: With `N=C1N[C@](CCC2CCCCC2)(CC2CCCCC2)C(=O)N1Cc1ccc(Cl)cc1Cl` [drawing 4505] as the compound, how does the Ki read?
A: < 75 nM

Q: For `Cc1ccccc1CN1C(=N)N[C@](CCC2CCCCC2)(CC2CCCCC2)C1=O`, which Ki is on record?
A: < 75 nM

Q: For `CC(C)C[C@H](CO)N1C(=N)N[C@](CCC2CCCCC2)(CC2CCCCC2)C1=O`, which Ki is on record?
A: < 75 nM

Q: `N=C1N[C@](CCC2CCCCC2)(CC2CCCCC2)C(=O)N1Cc1ccc(F)cc1Cl` was tested. Which Ki did it give?
A: < 75 nM
